In ChEMBL document CHEMBL1157390, “Aplysinoplides A-C, cytotoxic sesterterpenes from the marine sponge Aplysinopsis digitata” (J Nat Prod, 2008):
Converted amounts (≈) assume the structure as drawn. The source made the active and inactive calls. The rule behind the calls is not given here.

Tests used:
P388 = assay: Cytotoxicity against mouse P388 cells after 96 hrs by MTT assay; assay type: functional, cell-based; details: P388, 96 h
[1] = molecular target: Phospholipase A2 (Bos taurus) (UniProt P00593); assay: Inhibition of bovine pancreas PLA2 at 100 uM by pH-stat assay
Sequence of Phospholipase A2 (Bos taurus) (P00593 whole entry): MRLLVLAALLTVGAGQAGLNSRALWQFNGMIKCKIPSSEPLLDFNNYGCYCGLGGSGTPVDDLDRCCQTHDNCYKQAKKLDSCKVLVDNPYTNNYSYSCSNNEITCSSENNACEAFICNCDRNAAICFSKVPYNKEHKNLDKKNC

In the case of `CC1=C(CC/C(C)=C/CC/C(=C\C=C\C2=CC(=O)OC2O)CO)C(C)(C)CCC1` (stereo unspecified) [APLYSINOPLIDE A], the IC50 (P388) is reported as 0.45 µg/mL (≈ 1.12 µM) and the Activity [1] is reported as “inactive”.

For `CC1=C(CC/C(C)=C/CC/C(=C\CC(O)C2=CC(=O)OC2O)CO)C(C)(C)CCC1` (stereo unspecified) [APLYSINOPLIDE B], the IC50 (P388) was 0.45 µg/mL (≈ 1.08 µM) and the Activity [1] was “inactive”.

With `CC1=C(CC/C(C)=C/CCC2=CC[C@H](C3=CC(=O)O[C@H]3O)O[C@H]2O)C(C)(C)CCC1` the Activity [1] was “Active”.

Molecule `C/C(=C\CC/C(=C/CC1OC(=O)C=C1CO)CO)CCC1C(C)(C)CCCC1(C)O` (stereo unspecified) [APLYSINOPLIDE C] has an IC50 (P388) of 11 µg/mL (≈ 26.2 µM).
